The record followed here is patent US10053455B2, “Diazaspiroalkaneone-substituted oxazole derivatives as spleen tyrosine kinase inhibitors” (AB SCIENCE, priority 2014, dated 2018).

In one experiment the target is Jak1 (Homo sapiens (Human), UniProt P23458). Put plainly: HTRF kinase assay, Jak1. As to conditions: enzymatic determination. The format is biochemical. The protocol:
(§1) Most of the kinases tested in this study were cloned, expressed and purified in the facilities of the inventors. They were expressed either as N-terminus hexahistidine-, hexahistidine-asparagine- or GST-tagged enzymes in a baculovirus or in a Colibacille expression system. Remaining enzymes (JAKs) were purchased from Millipore or Proqinase. For each enzyme, steady state kinetic parameters were determined and validated with known inhibitors.
(§2) The analysis of the effect of compounds on kinase activity was assessed with the HTRF® KinEASE assay (Cisbio International), an immuno-assay based on the quantification of the level of phosphorylation of a biotinylated peptide substrate using anti-phospho-specific antibody labeled with Europium (Eu^3+) cryptate. This assay comprises two steps: —an enzymatic step, during which the peptide substrate, the kinase, ATP, Mg^2+ and/or Mn^2+ are incubated with varying concentration of drug (from 0 to 10 μM); —a detection step, at the end of the reaction (stopped by addition of EDTA which chelates Mg^2+), the antibody anti-phospho peptide-Eu^3+ (emission 620 nm) and streptavidin XL-665 (emission 665 nm) are added to the reaction mix. […] Results are expressed in delta fluorescence (DF) unit defined as follow DF %=[(ratio−ratio blank)/(ratio blank)]*100, where ratio=(665 nm/620 nm)*10^4. […]
In general terms: TR-FRET usually uses a lanthanide donor and a delayed reading to cut background.

In a further experiment the target is Jak2 (Homo sapiens (Human), UniProt O60674). The experiment can be described thus: HTRF kinase assay, Jak2. The class given is biochemical. As to conditions: enzymatic determination. How it is done: as §1, §2
Sequence of Jak2 (O60674 whole entry): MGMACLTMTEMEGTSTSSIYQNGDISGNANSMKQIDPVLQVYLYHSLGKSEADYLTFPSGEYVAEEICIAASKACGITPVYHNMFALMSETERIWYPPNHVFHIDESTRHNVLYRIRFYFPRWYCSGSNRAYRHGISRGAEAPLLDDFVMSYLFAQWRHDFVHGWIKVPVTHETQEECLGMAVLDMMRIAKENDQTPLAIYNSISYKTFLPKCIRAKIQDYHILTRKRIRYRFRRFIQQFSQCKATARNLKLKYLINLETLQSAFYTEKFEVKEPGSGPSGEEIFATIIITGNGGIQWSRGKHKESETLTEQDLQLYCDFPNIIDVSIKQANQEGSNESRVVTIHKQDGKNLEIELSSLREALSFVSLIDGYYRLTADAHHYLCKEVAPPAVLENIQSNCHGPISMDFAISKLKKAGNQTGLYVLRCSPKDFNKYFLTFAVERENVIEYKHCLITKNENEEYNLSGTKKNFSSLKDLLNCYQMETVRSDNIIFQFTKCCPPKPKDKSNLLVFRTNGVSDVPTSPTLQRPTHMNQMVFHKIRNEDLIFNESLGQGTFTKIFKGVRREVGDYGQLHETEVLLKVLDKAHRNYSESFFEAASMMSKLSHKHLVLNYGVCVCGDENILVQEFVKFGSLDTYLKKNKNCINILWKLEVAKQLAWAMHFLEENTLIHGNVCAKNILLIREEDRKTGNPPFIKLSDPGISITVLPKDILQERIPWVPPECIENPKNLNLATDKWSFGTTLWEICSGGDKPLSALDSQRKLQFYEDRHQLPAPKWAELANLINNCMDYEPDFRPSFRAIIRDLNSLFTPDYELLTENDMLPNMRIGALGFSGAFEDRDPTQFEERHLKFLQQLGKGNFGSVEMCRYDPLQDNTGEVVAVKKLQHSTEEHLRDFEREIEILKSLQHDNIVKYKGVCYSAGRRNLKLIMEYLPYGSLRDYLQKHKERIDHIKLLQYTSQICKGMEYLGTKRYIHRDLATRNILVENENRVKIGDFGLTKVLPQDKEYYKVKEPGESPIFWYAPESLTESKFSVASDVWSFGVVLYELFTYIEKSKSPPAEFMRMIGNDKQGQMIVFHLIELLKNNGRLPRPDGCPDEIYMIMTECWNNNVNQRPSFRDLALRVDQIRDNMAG
The next experiment deals with murine model of asthma. Put plainly: Mouse model of asthma: eosinophils recruitment in bronchio-alveolar lavage. The format is in vivo, Balb/c male mice. How it is done: Balb/c male mice, 8 weeks old, were purchased from Janvier (Le Genest-Saint-Isle; FRANCE) and bred in the animal facility for 4 weeks. Drugs were dissolved in drinking solvent (80% water; 10% Tween 80 and 10% isopropanediol). It was aliquoted and stored at −20° C. Each mouse received drugs twice a day. The weight of animals was calculated before and after treatment.
Mice, 9 weeks of age, were sensitized with 50 μg of ovalbumin (Sigma-Aldrich, Germany) adsorbed to 2 mg Al(OH)3 (Prolabo, France) and diluted in physiological saline (0.9% NaCl). Ovalbumin was injected intraperitoneally on days 1 and 7. Sensitization was followed by intranasal challenges with 10 μg of ovalbumin diluted in 0.9% NaCl, each day from day 18 to day 21. On days 17 to 21, animals treated with drugs received 100 μl of a solution at 15 mg/ml, at 7.5 mg/ml or at 3.75 mg/ml administered per os twice a day during 5 days. These treatments corresponded to concentration of 60 mg/mouse kg, 30 mg/mouse kg and 15 mg/mouse kg respectively.
Bronchio-alveolar lavage (BAL) was performed after the animals were disconnected from the FlexiVent®. The airways were lavaged with 5 ml (10 times 0.5 ml) ice cold 0.9% NaCl 2.6 mM EDTA. BAL samples were centrifuged at 1200 rpm for 5 minutes at 4° C. Pellet cells were collected and erythrocytes lysed by adding 1.5 ml deionized water for 30 seconds. After neutralization with 0.5 ml of 0.6M KCl, cells were centrifuged at 1200 rpm for 5 minutes at 4° C. BAL samples were used to count the total cell number and to perform cytospins (shandon, Pontoise). Cell types were identified by morphological criteria after Hemacolor (Merck) staining.
Mice were sensitized and challenged with ovalbumin as described in protocol assays above. The mice were distributed in groups of 5-6 animals that were treated twice daily with 7.5 to 60 mg/Kg of anti-SYK/KIT drugs (PO).

For the next experiment, the target named is KIT wild-type (Homo sapiens (Human), UniProt P10721). The experiment can be described thus: Cell-based proliferation assay on BaF3 model, KIT wild-type. How it is done:
Cell-based proliferation and viability assay CellTiter-Bleue cell-based survival/proliferation assay (Promega G8080) was performed on BaF3 models.
(§3) A total of 1.10^4 cells/well/50 μl were seeded in a 96-wells plate. Treatment was initiated by addition of a 2× drug solution of ½ serial dilutions ranging from 0 to 10 μM. Cells were grown for 48-72 h at 37° C. and then incubated with 10 μl/well of Promega CellTiter-Bleue reagent for 4 h at 37° C. The amount of formazan dye formed was quantified by its absorbance at 450 nm using a scanning multiwell spectrophotometer (POLARstar Omega, BMG labtech, France). A blank well without cells was used as a background control for the spectrophotometer and all assays were performed in duplicates and the experiments were repeated at least twice.

Experiment [1] concerns Murine bone marrow mast cells (BMMCs). The experiment can be described thus: IgE-mediated mast cell degranulation assay (β-hexosaminidase release). The format is cell-based, C57BL/6J mice. Conditions: Mus musculus, BMMC. The protocol:
In vitro mast cell degranulation assay monitored by released of β-hexosaminidase. Murine bone marrow mast cells (BMMCs) are obtained by flushing bone marrow cells from the femurs of C57BL/6J mice, then cultured for 3-4 weeks in RPMI containing mouse recombinant IL-3 (30 ng/ml). RBL-2H3 is a rat basophile cell line maintained in monolayer culture in EMEM supplemented with 20% FCS, 1 mM Glutamine and 1× antibiotics. Cells were sensitized overnight with 0.2 μg/ml anti-DNP-IgE (Sigma-Aldrich D8406). […] After incubation 90 min at 37° C., the reaction was quenched by addition of 100 μl of sodium carbonate buffer (0.1M Na2CO3/NaHCO3 pH 10.0). β-hexosaminidase activity was quantified by reading plate absorbance at 405 nm with reference at 620 nm using a PolarSTAR reader plate (BMG labech).
The activity of anti-SYK compounds was tested in an IgE-mediated mast cell degranulation assay. SYK has been identified to be critical for the initiation of mast cell mediator release following the aggregation of FcεRI.

Another experiment addresses c-Met (Homo sapiens (Human), UniProt P08581). The experiment can be described thus: HTRF kinase assay, c-Met. The class given is biochemical. As to conditions: enzymatic determination. How it is done:
as §1, §2

Another experiment deals with BCR-ABL (Homo sapiens, UniProt P00519). Put plainly: Cell-based proliferation assay on BaF3 model, BCR-ABL. The protocol: as §3, with “Cell-based proliferation and viability assay CellTiter-Bleue cell-based survival/proliferation assay (Promega G8080)” for “A total of 1.10^4 cells/well/50 μl were seeded in a 96-wells plate. Treatment”, “performed on BaF3 models. […]” for “initiated by addition of a 2× drug solution of ½ serial dilutions ranging from 0 to 10 μM.”
Sequence of BCR-ABL (P00519 whole entry, looked up, stated change not applied): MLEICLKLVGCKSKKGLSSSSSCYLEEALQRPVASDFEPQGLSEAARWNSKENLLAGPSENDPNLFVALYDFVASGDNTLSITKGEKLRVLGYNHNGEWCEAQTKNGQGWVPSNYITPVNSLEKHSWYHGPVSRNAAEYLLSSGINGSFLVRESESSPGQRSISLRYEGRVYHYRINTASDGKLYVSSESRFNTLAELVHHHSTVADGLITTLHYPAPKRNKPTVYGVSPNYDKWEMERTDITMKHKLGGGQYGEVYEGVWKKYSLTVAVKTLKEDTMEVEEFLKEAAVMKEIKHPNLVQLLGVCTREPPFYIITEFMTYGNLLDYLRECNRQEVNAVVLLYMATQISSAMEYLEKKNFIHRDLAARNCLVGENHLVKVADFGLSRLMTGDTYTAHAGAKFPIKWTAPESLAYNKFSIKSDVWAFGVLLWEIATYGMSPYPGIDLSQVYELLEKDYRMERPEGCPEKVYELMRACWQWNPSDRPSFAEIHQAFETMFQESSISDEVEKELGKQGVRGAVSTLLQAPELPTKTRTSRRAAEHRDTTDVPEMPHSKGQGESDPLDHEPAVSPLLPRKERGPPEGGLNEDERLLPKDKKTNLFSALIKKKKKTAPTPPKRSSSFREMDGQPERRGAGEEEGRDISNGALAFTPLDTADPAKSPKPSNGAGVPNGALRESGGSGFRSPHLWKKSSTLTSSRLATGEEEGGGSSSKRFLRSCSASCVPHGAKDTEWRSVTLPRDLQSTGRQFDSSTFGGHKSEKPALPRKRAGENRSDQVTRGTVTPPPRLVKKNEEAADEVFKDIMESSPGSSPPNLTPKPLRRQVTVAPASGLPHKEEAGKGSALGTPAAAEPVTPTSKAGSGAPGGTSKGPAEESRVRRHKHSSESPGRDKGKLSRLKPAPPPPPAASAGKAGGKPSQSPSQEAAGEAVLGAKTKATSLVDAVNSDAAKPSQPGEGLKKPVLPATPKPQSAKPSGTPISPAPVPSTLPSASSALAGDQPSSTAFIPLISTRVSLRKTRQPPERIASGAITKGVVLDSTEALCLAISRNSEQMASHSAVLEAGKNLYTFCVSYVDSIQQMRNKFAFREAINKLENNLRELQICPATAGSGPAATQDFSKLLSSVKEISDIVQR

For the next experiment, the target named is Src (Homo sapiens (Human), UniProt P12931). The experiment can be described thus: HTRF kinase assay, Src. The format is biochemical. Conditions: enzymatic determination. How it is done: as §1, §2

Read-outs that look alike come from different tables or passages of the source.

Sequence of c-Met (P08581 25-1390): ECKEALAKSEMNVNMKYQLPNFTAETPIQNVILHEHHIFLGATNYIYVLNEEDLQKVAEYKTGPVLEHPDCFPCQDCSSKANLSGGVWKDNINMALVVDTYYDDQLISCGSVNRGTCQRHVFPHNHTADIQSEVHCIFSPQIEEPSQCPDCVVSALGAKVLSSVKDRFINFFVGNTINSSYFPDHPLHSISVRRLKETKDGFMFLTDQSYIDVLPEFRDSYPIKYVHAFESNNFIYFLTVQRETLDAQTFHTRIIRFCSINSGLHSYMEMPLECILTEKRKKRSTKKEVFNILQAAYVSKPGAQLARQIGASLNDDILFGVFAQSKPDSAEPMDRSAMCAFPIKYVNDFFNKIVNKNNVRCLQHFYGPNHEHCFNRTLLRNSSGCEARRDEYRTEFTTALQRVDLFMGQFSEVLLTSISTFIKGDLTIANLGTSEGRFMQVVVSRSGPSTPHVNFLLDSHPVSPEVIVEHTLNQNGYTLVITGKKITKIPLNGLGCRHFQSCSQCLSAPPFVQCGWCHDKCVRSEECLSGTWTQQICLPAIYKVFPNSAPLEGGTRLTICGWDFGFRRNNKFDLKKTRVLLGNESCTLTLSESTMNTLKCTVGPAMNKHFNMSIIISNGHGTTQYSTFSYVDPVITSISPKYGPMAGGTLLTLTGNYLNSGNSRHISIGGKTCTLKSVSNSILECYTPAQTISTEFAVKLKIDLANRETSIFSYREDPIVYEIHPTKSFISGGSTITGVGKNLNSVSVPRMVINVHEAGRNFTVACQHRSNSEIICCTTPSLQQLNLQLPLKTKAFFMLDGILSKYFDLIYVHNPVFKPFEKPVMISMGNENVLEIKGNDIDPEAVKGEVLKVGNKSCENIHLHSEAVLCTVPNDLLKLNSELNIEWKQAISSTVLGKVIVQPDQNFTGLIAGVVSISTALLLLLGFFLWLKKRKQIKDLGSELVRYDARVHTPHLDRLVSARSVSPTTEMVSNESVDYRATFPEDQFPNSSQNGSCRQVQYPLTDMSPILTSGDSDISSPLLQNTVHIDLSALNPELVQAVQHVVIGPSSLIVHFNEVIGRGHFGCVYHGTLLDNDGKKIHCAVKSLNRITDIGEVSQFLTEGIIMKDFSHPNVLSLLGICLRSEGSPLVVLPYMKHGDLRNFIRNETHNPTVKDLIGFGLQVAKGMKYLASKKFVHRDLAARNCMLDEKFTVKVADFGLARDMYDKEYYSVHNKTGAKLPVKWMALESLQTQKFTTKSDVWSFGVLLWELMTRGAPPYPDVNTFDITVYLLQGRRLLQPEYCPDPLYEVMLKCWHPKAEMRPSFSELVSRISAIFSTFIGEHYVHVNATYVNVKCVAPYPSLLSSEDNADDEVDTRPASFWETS
Sequence of Jak1 (P23458 whole entry): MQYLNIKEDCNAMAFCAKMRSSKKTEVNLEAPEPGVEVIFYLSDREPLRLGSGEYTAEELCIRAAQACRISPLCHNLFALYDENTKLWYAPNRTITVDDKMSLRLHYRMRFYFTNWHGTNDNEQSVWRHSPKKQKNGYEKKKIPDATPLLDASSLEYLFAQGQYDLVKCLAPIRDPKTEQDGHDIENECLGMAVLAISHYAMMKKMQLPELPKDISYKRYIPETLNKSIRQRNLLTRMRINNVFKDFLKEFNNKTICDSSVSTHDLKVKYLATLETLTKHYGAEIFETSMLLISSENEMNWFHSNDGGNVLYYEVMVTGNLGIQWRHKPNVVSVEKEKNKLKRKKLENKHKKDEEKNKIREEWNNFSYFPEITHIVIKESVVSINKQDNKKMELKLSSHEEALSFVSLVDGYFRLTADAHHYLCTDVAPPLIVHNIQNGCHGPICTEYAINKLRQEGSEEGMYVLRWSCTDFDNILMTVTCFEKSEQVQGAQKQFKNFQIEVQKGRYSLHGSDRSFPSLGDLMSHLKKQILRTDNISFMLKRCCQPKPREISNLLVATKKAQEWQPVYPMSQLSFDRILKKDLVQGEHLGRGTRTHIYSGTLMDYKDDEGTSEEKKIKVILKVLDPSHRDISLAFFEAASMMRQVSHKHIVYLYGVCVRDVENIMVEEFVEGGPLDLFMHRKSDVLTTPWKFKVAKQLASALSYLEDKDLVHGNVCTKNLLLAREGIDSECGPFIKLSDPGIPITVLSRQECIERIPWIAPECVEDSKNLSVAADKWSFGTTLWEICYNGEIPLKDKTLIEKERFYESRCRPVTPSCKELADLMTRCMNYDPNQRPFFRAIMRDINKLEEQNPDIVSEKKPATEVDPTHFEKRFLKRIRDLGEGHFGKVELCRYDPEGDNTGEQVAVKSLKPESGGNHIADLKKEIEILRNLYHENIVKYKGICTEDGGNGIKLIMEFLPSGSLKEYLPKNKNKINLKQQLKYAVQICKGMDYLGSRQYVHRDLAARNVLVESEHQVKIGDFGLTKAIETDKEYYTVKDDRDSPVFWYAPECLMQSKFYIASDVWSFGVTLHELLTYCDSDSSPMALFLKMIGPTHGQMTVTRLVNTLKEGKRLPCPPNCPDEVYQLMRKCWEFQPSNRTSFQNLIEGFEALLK

By IC50 is commonly meant the point on the concentration scale where inhibition reaches its midpoint. Turning to `Cc1ccnc(Nc2cccc(-c3cnc(N4CCNC(=O)C45CC5)o3)c2)n1` [Compound 001, 4-{5-[3-(4-Methyl-pyrimidin-2-ylamino)-phenyl]-oxazol-2-yl}-4,7-diaza-spiro[2.5]octan-8-one], the IC50 at Jak1 was determined as 3400 nM; at Jak2 (read-out: Jak2 IC50), 900 nM; on Jak2 (read-out: Kinase activity profile IC50 JAK 2), 920 nM; on KIT wild-type, 10000 nM; in experiment [1] (read-out: inhibiting mast cell degranulation IC50) it was 50 nM; against c-Met, 10000 nM. Besides, the IC50 came out at 10000 nM on BCR-ABL and 2600 nM on Src. Further, the “Percentage of Eosinophils recruitment in Bronchio-alveolar lavage (BAL)” value in the experiment with murine model of asthma (Experiment #2, 2 × 15 mg/kg/day PO) is recorded as −14%; in the experiment with murine model of asthma (Experiment #2, 2 × 30 mg/kg/day PO), −47%. For the same compound, the activity at 0.01 µM in experiment [1] (0.01 μM, read-out: β-hexosaminidase activity (% control untreated cells)) amounted to 88 ± 14%. Moreover, the activity at 0.1 µM in experiment [1] (0.1 μM, read-out: β-hexosaminidase activity (% control untreated cells)) worked out at 32 ± 9%. Besides, the activity at 1 µM in experiment [1] (1 μM, read-out: β-hexosaminidase activity (% control untreated cells)) was 3 ± 5%.
